Results taken from patent US8143421B2, “Broadspectrum substituted benzimidazole sulfonamide HIV protease inhibitors” (priority 2002, dated 2012).

Legend:
mutant C = assay: Antiviral spectrum, fold resistance towards mutant C; type: cell-based; details: FR=IC50(mutant strain)/IC50(HIV-1 strain LAI)
Description: (§1) Because of the increasing emergence of drug resistant HIV strains, the present compounds were tested for their potency against clinically isolated HIV strains harboring several mutations. These mutations are associated with resistance to protease inhibitors and result in viruses that show various degrees of phenotypic cross-resistance to the currently commercially available drugs such as for instance saquinavir, ritonavir, nelfinavir, indinavir and amprenavir. The viral strains R13025, R13027, R13028, R13029, R13034, R13080, T13127 and R13363 contained mutations as indicated below in Table 3.

mock-infected MT4 cells = assay: in vitro
Description: (§2) HIV- or mock-infected MT4 cells were incubated for five days in the presence of various concentrations of the inhibitor. […] Cell viability is measured by measuring the concentration of MTT, a yellow, water soluble tetrazolium dye that is converted to a purple, water insoluble formazan in the mitochondria of living cells only. Upon solubilization of the resulting formazan crystals with isopropanol, the absorbance of the solution is monitored at 540 nm. The values correlate directly to the number of living cells remaining in the culture at the completion of the five day incubation. The inhibitory activity of the compound was monitored on the virus-infected cells and was expressed as IC50 and IC90. These values represent the amount of the compound required to protect 50% and 90%, respectively, of the cells from the cytopathogenic effect of the virus. […] The selectivity index (SI) (ratio CC50/IC50) is an indication of the selectivity of the anti-HIV activity of the inhibitor. Wherever results are reported as e.g. pIC50 or pCC50 values, the result is expressed as the negative logarithm of the result expressed as IC50 or CC50 respectively.
(§3) As a measure of the broad spectrum activity of the present compounds, the fold resistance (FR), defined as FR=IC50(mutant strain)/IC50(HIV-1 strain LAI), was determined.

mutant E = type: cell-based; details: FR=IC50(mutant strain)/IC50(HIV-1 strain LAI)
Description: as §2
(§4) Because of the increasing emergence of drug resistant HIV strains, the present compounds were tested for their potency against clinically isolated HIV strains harboring several mutations. […] The viral strains R13025, R13027, R13028, R13029, R13034, R13080, T13127 and R13363 contained mutations as indicated below in Table 3.
as §3

mutant A = type: cell-based; details: FR=IC50(mutant strain)/IC50(HIV-1 strain LAI)
Description: as §2, §4, §3

mutant G = assay: Antiviral spectrum, fold resistance towards mutant G; type: cell-based; details: FR=IC50(mutant strain)/IC50(HIV-1 strain LAI)
Description: as §1

HIV-1 strain LAI = assay: Cellular anti-HIV assay, MT4 cells, MTT readout, wild type HIV-1 strain LAI; type: cell-based; details: for pIC50 (LAI): MT4 cells, five days, HIV-1 strain LAI; for WT (pIC50 against wild type HIV-LAI strain): Table 4
Description: The compounds of the present invention were examined for anti-viral activity in a cellular assay. […] The cellular assay was performed according to the following procedure.

mutant D = assay: Antiviral spectrum, fold resistance towards mutant D; type: cell-based; details: FR=IC50(mutant strain)/IC50(HIV-1 strain LAI)
Description: as §1

mutant F = assay: Antiviral spectrum, fold resistance towards mutant F; type: cell-based; details: FR=IC50(mutant strain)/IC50(HIV-1 strain LAI)
Description: as §1

mutant B = assay: Antiviral spectrum, fold resistance towards mutant B; type: cell-based; details: FR=IC50(mutant strain)/IC50(HIV-1 strain LAI)
Description: as §1

mutant H = assay: Antiviral spectrum, fold resistance towards mutant H; type: cell-based; details: FR=IC50(mutant strain)/IC50(HIV-1 strain LAI)
Description: as §1

[1] = pCC50 value as determined with mock transfected cells

Compound | FR towards mutant C (mutant C) | Tox (pCC50) (mock-infected MT4 cells) | FR towards mutant E (mutant E) | FR value towards mutant A (mutant A) | FR towards mutant G (mutant G) | pIC50 (LAI) (HIV-1 strain LAI; Table 1) | WT (pIC50 against wild type HIV-LAI strain) (HIV-1 strain LAI) | FR towards mutant D (mutant D) | FR towards mutant F (mutant F) | Tox (pCC50) (mock-infected MT4 cells; [1]) | FR towards mutant B (mutant B) | FR towards mutant H (mutant H) | pIC50 (LAI) (HIV-1 strain LAI; Table 2)
COC(=O)Nc1nc2ccc(S(=O)(=O)N(CC(C)C)C[C@@H](O)[C@H](Cc3ccccc3)NC(=O)COc3c(C)cccc3C)cc2[nH]1 [Compound 6] | 2.7 | <4 | 1.6 | 2.9 | 60 | 8.6 | 8.6 | 2.1 | 10 |  |  |  | 
COC(=O)Nc1nc2ccc(S(=O)(=O)N(CC(C)C)C[C@@H](O)[C@H](Cc3ccccc3)NC(=O)c3ccc([N+](=O)[O-])cc3C)cc2[nH]1 [Compound 11] | 1.5 |  | 1.6 | 5.4 | 245 | 8.0 | 8.0 | 3.5 | 7.1 | <4 | 1.0 |  | 
COC(=O)Nc1nc2ccc(S(=O)(=O)N(CC(C)C)C[C@@H](O)[C@H](Cc3ccccc3)NC(=O)COc3c(C)cc(C#N)cc3C)cc2[nH]1 [Compound 12] | 9.5 |  | 9.5 | 5.5 | 89 | 7.8 | 7.8 | 7.9 | 49 | <4 | 2.1 |  | 
Cc1cccc(C)c1OCC(=O)N[C@@H](Cc1ccccc1)[C@H](O)CN(CC(C)C)S(=O)(=O)c1ccc2nc(N)n(C)c2c1 [Compound 13] | 2.5 | <4 | 4.5 |  |  | 7.7 | 7.7 | 3.4 |  |  | 3.4 |  | 
CC(C)CN(C[C@@H](O)[C@H](Cc1ccccc1)NC(=O)O[C@H]1CCOC1)S(=O)(=O)c1ccc2ncn(CCc3ccccc3)c2c1 [Compound 15] | 2.4 |  | 6.2 |  | 407 | 7.7 | 7.7 | 5.4 | 269 | 4.2 | 6.3 |  | 
CC(C)CN(C[C@@H](O)[C@H](Cc1ccccc1)NC(=O)O[C@H]1CCOC1)S(=O)(=O)c1ccc2ncn(C)c2c1 [Compound 16] | 2.6 | <4.49 | 5.4 |  |  | 7.7 | 7.7 | 5.9 | 288 |  |  |  | 
COC(=O)Nc1nc2ccc(S(=O)(=O)N(CC(C)C)C[C@@H](O)[C@H](Cc3ccccc3)NC(=O)COc3c(C)cc(N(C)C)cc3C)cc2[nH]1 [Compound 19] | 1.4 |  | 3.5 | 5.6 |  | 7.5 | 7.5 | 3.6 | 83 | <4 | 1.2 |  | 
CC(C)CN(C[C@@H](O)[C@H](Cc1ccccc1)NC(=O)OCc1cncs1)S(=O)(=O)c1ccc2nc[nH]c2c1 [Compound 23] | 3.5 | <4 | 4.8 | 7.1 |  | 7.3 | 7.3 | 2.5 | 23 |  | 2.3 |  | 
COc1ccc(C(=O)Nc2nc3ccc(S(=O)(=O)N(CC(C)C)C[C@@H](O)[C@H](Cc4ccccc4)NC(=O)COc4c(C)cccc4C)cc3[nH]2)cc1 [Compound 37] | 0.95 |  | 1.3 | 1.0 | 21 | 6.9 | 6.9 | 1.9 | 7.9 |  | 0.35 |  | 
CC(C)CN(C[C@@H](O)[C@H](Cc1ccccc1)NC(=O)OC(C)(C)C)S(=O)(=O)c1ccc2ncn(CCc3ccccc3)c2c1 [Compound 43] |  |  | 12.6 | 22 |  | 6.4 | 6.4 |  |  | 4.99 |  | 28 | 
Cc1cccc(C)c1OCC(=O)N[C@@H](Cc1ccccc1)[C@H](O)CN(CC(C)C)S(=O)(=O)c1ccc2ncn(CCc3ccccc3)c2c1 [Compound 47] |  |  | 7.8 | 14 |  | 6.4 | 6.4 |  |  | <4 |  | 66 | 
Cc1cc(OCC(=O)N[C@@H](Cc2ccccc2)[C@H](O)CN(CC(C)C)S(=O)(=O)c2ccc3nc[nH]c3c2)no1 [Compound 49] |  |  | 1.0 | 12 |  | 6.3 | 6.3 |  |  | <4 |  | 3.5 | 
CC(C)CN(C[C@@H](O)[C@H](Cc1ccccc1)NC(=O)OC1COC2OCCC12)S(=O)(=O)c1ccc2nc[nH]c2c1 (stereo partly drawn) [Compound 50] |  | <4 | 0.83 | 1.4 |  | 6.9 | 6.9 |  |  |  |  | 2.8 | 
CC(C)CN(C[C@@H](O)[C@H](Cc1ccccc1)NC(=O)O[C@H]1CCOC1)S(=O)(=O)c1ccc2nc(NC(=O)NCCN(C)C)[nH]c2c1 [Compound 52] | 3.5 | <5 | 3.4 | 4.2 |  | 6.1 | 6.1 | 3.0 | 4.3 |  | 2.9 |  | 
CC(C)CN(C[C@@H](O)[C@H](Cc1ccccc1)NC(=O)OCc1cccnc1)S(=O)(=O)c1ccc2nc(N)[nH]c2c1 [Compound 54] | 0.42 |  | 0.42 | 1.6 |  | 5.8 | 5.8 | 0.46 | 1.7 | <4 | 0.40 |  | 
CC(C)CN(C[C@@H](O)[C@H](Cc1ccccc1)NC(=O)OC1COC2OCCC12)S(=O)(=O)c1ccc2nc(N)[nH]c2c1 (stereo partly drawn) [Compound 59] |  | <4 | 0.31 | 1.5 |  | 5.3 | 5.3 |  |  |  |  | 0.39 | 
[(1S,2R)-2-hydroxy-3-[(2-methylpropyl)[[1-(2-methyl-propyl)benzimidazol-6-yl]sulfonyl]amino]-1-(phenylmethyl)propyl]carbamic acid, [(3R,3aS,6aR)-hexahydrofuro[2,3-b]furan-3-yl]ester [Compound 7] | 0.45 |  | 2.1 |  | 174 | 8.6 | 8.6 | 1.2 | 72 | <4 |  |  | 
[(1S,2R)-3-[[(1-methylbenzimidazol-5-yl)sulfonyl](2-methyl-propyl)amino]-2-hydroxy-1-(phenylmethyl)propyl]carbamic acid, [(3R,3aS,6aR)-hexahydrofuro[2,3-b]furan-3-yl]ester [Compound 64] |  |  | 1.5 | 4.3 |  |  | 7.6 |  |  | <4 |  | 13 | 7.6
